According to the supplement of paper PMC10307832:

Key:
Test in all cases: relative viability (nuclei count vs DMSO), 5 days (fraction); higher = more cells survive
Dovitinib + Palbociclib = compound: CN1CCN(c2ccc3nc(-c4c(N)c5c(F)cccc5[nH]c4=O)[nH]c3c2)CC1 [Dovitinib] + CC(=O)c1c(C)c2cnc(Nc3ccc(N4CCNCC4)cn3)nc2n(C2CCCC2)c1=O [Palbociclib] (partner 0.5 µM)
In short: (§1)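 Lung cancer cell lines were pin-tool dosed in 1536-well plates on the day after seeding, with either a lone drug or a fixed anchor-drug dose plus five library-drug doses (not always all listed) in √10 steps. Nuclei were counted on 4× images after 5 days. Relative viability is the ratio of treated-well to vehicle-well nuclei counts, with each value a median of duplicate plates.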

Dovitinib + Alpelisib = compound: CN1CCN(c2ccc3nc(-c4c(N)c5c(F)cccc5[nH]c4=O)[nH]c3c2)CC1 [Dovitinib] + Cc1nc(NC(=O)N2CCC[C@H]2C(N)=O)sc1-c1ccnc(C(C)(C)C(F)(F)F)c1 [Alpelisib] (partner 2 µM)
In short: as §1

Dovitinib + Pemetrexed = compound: CN1CCN(c2ccc3nc(-c4c(N)c5c(F)cccc5[nH]c4=O)[nH]c3c2)CC1 [Dovitinib] + Nc1nc2[nH]cc(CCc3ccc(C(=O)N[C@@H](CCC(=O)O)C(=O)O)cc3)c2c(=O)[nH]1 [Pemetrexed] (partner 0.2 µM)
In short: as §1

Dovitinib + Olaparib = compound: CN1CCN(c2ccc3nc(-c4c(N)c5c(F)cccc5[nH]c4=O)[nH]c3c2)CC1 [Dovitinib] + O=C(c1cc(Cc2n[nH]c(=O)c3ccccc23)ccc1F)N1CCN(C(=O)C2CC2)CC1 [Olaparib] (partner 8 µM)
In short: as §1

Cell Line | relative viability (Dovitinib + Palbociclib; first compound 0.02 µM) | relative viability (Dovitinib + Palbociclib; first compound 0.06325 µM) | relative viability (Dovitinib + Palbociclib; first compound 0.2 µM) | relative viability (Dovitinib + Palbociclib; first compound 0.6325 µM) | relative viability (Dovitinib + Palbociclib; first compound 2 µM) | relative viability (Dovitinib + Alpelisib; first compound 0.02 µM) | relative viability (Dovitinib + Alpelisib; first compound 0.06325 µM) | relative viability (Dovitinib + Alpelisib; first compound 0.2 µM) | relative viability (Dovitinib + Alpelisib; first compound 0.6325 µM) | relative viability (Dovitinib + Alpelisib; first compound 2 µM) | relative viability (Dovitinib + Pemetrexed; first compound 0.02 µM) | relative viability (Dovitinib + Pemetrexed; first compound 0.06325 µM) | relative viability (Dovitinib + Pemetrexed; first compound 0.2 µM) | relative viability (Dovitinib + Pemetrexed; first compound 0.6325 µM) | relative viability (Dovitinib + Pemetrexed; first compound 2 µM) | relative viability (Dovitinib + Olaparib; first compound 0.02 µM) | relative viability (Dovitinib + Olaparib; first compound 0.06325 µM) | relative viability (Dovitinib + Olaparib; first compound 0.2 µM) | relative viability (Dovitinib + Olaparib; first compound 0.6325 µM) | relative viability (Dovitinib + Olaparib; first compound 2 µM)
LXF-289 | 0.577 | 0.604 | 0.621 | 0.598 | 0.566 | 1.01 | 1.02 | 1.02 | 1.03 | 0.926 | 0.883 | 0.893 | 0.864 | 0.962 | 0.894 | 0.974 | 1.08 | 1.07 | 1.1 | 0.976
NCI-H23 | 0.482 | 0.58 | 0.574 | 0.515 | 0.541 | 0.788 | 0.638 | 0.766 | 0.631 | 0.627 | 0.79 | 0.592 | 0.623 | 0.674 | 0.658 | 0.271 | 0.314 | 0.333 | 0.298 | 0.338
NCI-H322M | 0.46 | 0.471 | 0.468 | 0.482 | 0.487 | 0.84 | 0.774 | 0.792 | 0.809 | 0.776 | 0.597 | 0.613 | 0.634 | 0.607 | 0.6 | 0.727 | 0.697 | 0.74 | 0.858 | 0.881
NCI-H358 | 0.153 | 0.141 | 0.118 | 0.135 | 0.135 | 0.941 | 0.905 | 0.849 | 0.84 | 0.804 | 0.169 | 0.171 | 0.186 | 0.18 | 0.176 | 0.621 | 0.658 | 0.619 | 0.543 | 0.606
NCI-H441 | 0.22 | 0.195 | 0.212 | 0.221 | 0.194 | 0.787 | 0.902 | 0.909 | 0.548 | 0.566 | 0.257 | 0.266 | 0.296 | 0.271 | 0.24 | 0.513 | 0.549 | 0.534 | 0.62 | 0.588
NCI-H460 | 0.147 | 0.226 | 0.159 | 0.163 | 0.142 | 0.421 | 0.562 | 0.524 | 0.395 | 0.426 | 0.0606 | 0.0581 | 0.0649 | 0.0683 | 0.0626 | 0.372 | 0.488 | 0.403 | 0.426 | 0.411
NCI-H520 | 0.206 | 0.213 | 0.214 | 0.266 | 0.162 | 0.794 | 0.988 | 0.935 | 0.86 | 0.769 | 0.687 | 0.683 | 0.615 | 0.596 | 0.635 | 0.358 | 0.315 | 0.332 | 0.33 | 0.389
NCI-H647 | 0.337 | 0.427 | 0.378 | 0.402 | 0.431 | 0.966 | 1.15 | 1.34 | 1.19 | 0.961 | 0.194 | 0.189 | 0.154 | 0.191 | 0.177 | 0.578 | 0.538 | 0.5 | 0.418 | 0.675
NCI-H650 | 0.321 | 0.333 | 0.359 | 0.317 | 0.357 | 1.13 | 0.972 | 1.07 | 0.997 | 1.2 | 0.908 | 0.856 | 0.898 | 0.983 | 0.956 | 0.348 | 0.388 | 0.391 | 0.414 | 0.429
NCI-H661 | 0.414 | 0.453 | 0.429 | 0.426 | 0.432 | 0.706 | 0.661 | 0.885 | 0.898 | 0.573 | 0.888 | 0.927 | 0.935 | 0.878 | 0.949 | 0.68 | 0.749 | 0.738 | 0.774 | 0.752
NCI-H838 | 0.231 | 0.209 | 0.217 | 0.217 | 0.228 | 0.949 | 1.04 | 1.01 | 0.936 | 0.938 | 0.262 | 0.277 | 0.229 | 0.234 | 0.265 | 0.738 | 0.733 | 0.755 | 0.745 | 0.763
NCI-H1355 | 0.416 | 0.41 | 0.465 | 0.397 | 0.415 | 0.797 | 0.796 | 0.864 | 0.764 | 0.82 | 1.08 | 0.945 | 1.16 | 1.1 | 1.1 | 0.792 | 0.762 | 0.717 | 0.723 | 0.754
NCI-H1395 | 0.608 | 0.575 | 0.661 | 0.605 | 0.652 | 1.07 | 0.988 | 1.11 | 1.09 | 1.12 | 0.91 | 0.807 | 0.933 | 0.911 | 1.02 | 0.533 | 0.431 | 0.478 | 0.505 | 0.479
NCI-H1437 | 0.305 | 0.301 | 0.321 | 0.32 | 0.321 | 0.952 | 0.981 | 0.909 | 0.904 | 0.966 | 0.293 | 0.327 | 0.31 | 0.288 | 0.308 | 0.623 | 0.647 | 0.612 | 0.632 | 0.655
NCI-H1651 | 0.538 | 0.532 | 0.526 | 0.53 | 0.549 | 0.816 | 1.06 | 0.867 | 0.898 | 0.862 | 0.553 | 0.544 | 0.563 | 0.64 | 0.544 | 0.175 | 0.187 | 0.167 | 0.191 | 0.163
NCI-H1666 | 0.698 | 0.657 | 0.677 | 0.625 | 0.669 | 1.01 | 0.933 | 1.02 | 0.883 | 1.07 | 0.913 | 0.863 | 0.766 | 0.813 | 0.785 | 0.755 | 0.777 | 0.756 | 0.731 | 0.77
